Results taken from ChEMBL document CHEMBL3526057 (Drug Metab Dispos, 2011).

Experiments:
Assay type in all cases: ADME
Conditions in all cases: recombinant enzyme, 1 h
Cytochrome P450 2C19 [1] = target: T1, Cytochrome P450 2C19 (Homo sapiens, UniProt P33261, E92D); assay: Activity of human recombinant CYP2C19 E92D mutant expressed in Saccharomyces cerevisiae BJ5457 assessed asomeprazole 5'-hydroxylation per pmol protein after 60 mins
Cytochrome P450 2C19 [2] = target: Cytochrome P450 2C19 (Homo sapiens, UniProt P33261, P227L); assay: Activity of human recombinant CYP2C19.10 mutant expressed in Saccharomyces cerevisiae BJ5457 assessed as omeprazole 5'-hydroxylation per pmol protein at 5 uM after 60 mins
Cytochrome P450 2C19 [3] = target: T1, Cytochrome P450 2C19; assay: Activity of human recombinant CYP2C19 E92D mutant expressed in Saccharomyces cerevisiae BJ5457 assessed as omeprazole 5'-hydroxylation per pmol protein at 5 uM after 60 mins
Cytochrome P450 2C19 [4] = target: T2, Cytochrome P450 2C19 (Homo sapiens, UniProt P33261, R150H); assay: Activity of human recombinant CYP2C19.11 mutant expressed in Saccharomyces cerevisiae BJ5457 assessed as omeprazole 5'-hydroxylation per pmol protein at 100 uM after 60 mins
Cytochrome P450 2C19 [5] = target: T2, Cytochrome P450 2C19; assay: Activity of human recombinant CYP2C19.11 mutant expressed in Saccharomyces cerevisiae BJ5457 assessed as intrinisic clearance foromeprazole 5'-hydroxylation per pmol protein after 60 mins
[6] = Activity of human recombinant CYP2C19.6 mutant expressed in Saccharomyces cerevisiae BJ5457 assessed as omeprazole 5'-hydroxylation per pmol protein at 5 uM after 60 mins
Cytochrome P450 2C19 [7] = target: T3, Cytochrome P450 2C19 (Homo sapiens, UniProt P33261, V331I/R442C); assay: Activity of human recombinant CYP2C19.16 mutant expressed in Saccharomyces cerevisiae BJ5457 assessed as intrinisic clearance foromeprazole 5'-hydroxylation per pmol protein after 60 mins
Cytochrome P450 2C19 [8] = target: Cytochrome P450 2C19 (Homo sapiens, UniProt P33261, W212C); assay: Activity of human recombinant CYP2C19 W212C mutant expressed in Saccharomyces cerevisiae BJ5457 assessed asomeprazole 5'-hydroxylation per pmol protein after 60 mins
Cytochrome P450 2C19 [9] = target: T4, Cytochrome P450 2C19 (Homo sapiens, UniProt P33261, I19L); assay: Activity of human recombinant CYP2C19.15 mutant expressed in Saccharomyces cerevisiae BJ5457 assessed as omeprazole 5'-hydroxylation per pmol protein at 5 uM after 60 mins
Cytochrome P450 2C19 [10] = target: T5, Cytochrome P450 2C19 (Homo sapiens, UniProt P33261, M74T); assay: Activity of human recombinant CYP2C19 M74T mutant expressed in Saccharomyces cerevisiae BJ5457 assessed asomeprazole 5'-hydroxylation per pmol protein after 60 mins
Cytochrome P450 2C19 [11] = target: Cytochrome P450 2C19 (Homo sapiens, UniProt P33261, R410C); assay: Activity of human recombinant CYP2C19.13 mutant expressed in Saccharomyces cerevisiae BJ5457 assessed as omeprazole 5'-hydroxylation per pmol protein at 100 uM after 60 mins
Cytochrome P450 2C19 [12] = target: T6, Cytochrome P450 2C19 (Homo sapiens, UniProt P33261); assay: Activity of human recombinant CYP2C19.1B mutant expressed in Saccharomyces cerevisiae BJ5457 assessed asomeprazole 5'-hydroxylation after 60 mins
Cytochrome P450 2C19 [13] = target: Cytochrome P450 2C19 (Homo sapiens, UniProt P33261, S51G); assay: Activity of human recombinant CYP2C19.19 mutant expressed in Saccharomyces cerevisiae BJ5457 assessed as omeprazole 5'-hydroxylation per pmol protein at 100 uM after 60 mins
Cytochrome P450 2C19 [14] = target: T4, Cytochrome P450 2C19; assay: Activity of human recombinant CYP2C19.15 mutant expressed in Saccharomyces cerevisiae BJ5457 assessed as intrinisic clearance foromeprazole 5'-hydroxylation per pmol protein after 60 mins
Cytochrome P450 2C19 [15] = target: T5, Cytochrome P450 2C19; assay: Activity of human recombinant CYP2C19 M74T mutant expressed in Saccharomyces cerevisiae BJ5457 assessed asomeprazole 5'-hydroxylation after 60 mins
Cytochrome P450 2C19 [16] = target: Cytochrome P450 2C19 (Homo sapiens, UniProt P33261, R433W); assay: Activity of human recombinant CYP2C19.5B mutant expressed in Saccharomyces cerevisiae BJ5457 assessed as omeprazole 5'-hydroxylation per pmol protein at 100 uM after 60 mins
Cytochrome P450 2C19 [17] = target: Cytochrome P450 2C19 (Homo sapiens, UniProt P33261, L17P); assay: Activity of human recombinant CYP2C19.14 mutant expressed in Saccharomyces cerevisiae BJ5457 assessed as omeprazole 5'-hydroxylation per pmol protein at 5 uM after 60 mins
[18] = Activity of human recombinant CYP2C19.6 mutant expressed in Saccharomyces cerevisiae BJ5457 assessed as omeprazole 5'-hydroxylation per pmol protein at 100 uM after 60 mins
Cytochrome P450 2C19 [19] = target: T7, Cytochrome P450 2C19 (Homo sapiens, UniProt P33261, A161P); assay: Activity of human recombinant CYP2C19 A161P mutant expressed in Saccharomyces cerevisiae BJ5457 assessed asomeprazole 5'-hydroxylation per pmol protein after 60 mins
Cytochrome P450 2C19 [20] = target: T6, Cytochrome P450 2C19; assay: Activity of human recombinant CYP2C19.1B mutant expressed in Saccharomyces cerevisiae BJ5457 assessed as omeprazole 5'-hydroxylation per pmol protein at 100 uM after 60 mins
Cytochrome P450 2C19 [21] = target: T1, Cytochrome P450 2C19; assay: Activity of human recombinant CYP2C19 E92D mutant expressed in Saccharomyces cerevisiae BJ5457 assessed as intrinisic clearance foromeprazole 5'-hydroxylation per pmol protein after 60 mins
Cytochrome P450 2C19 [22] = target: Cytochrome P450 2C19 (Homo sapiens, UniProt P33261, F168L); assay: Activity of human recombinant CYP2C19 F168L mutant expressed in Saccharomyces cerevisiae BJ5457 assessed asomeprazole 5'-hydroxylation per pmol protein after 60 mins
Cytochrome P450 2C19 [23] = target: Cytochrome P450 2C19 (Homo sapiens, UniProt P33261, D360N); assay: Activity of human recombinant CYP2C19 D360N mutant expressed in Saccharomyces cerevisiae BJ5457 assessed as omeprazole 5'-hydroxylation per pmol protein at 100 uM after 60 mins
Cytochrome P450 2C19 [24] = target: T3, Cytochrome P450 2C19; assay: Activity of human recombinant CYP2C19.16 mutant expressed in Saccharomyces cerevisiae BJ5457 assessed asomeprazole 5'-hydroxylation after 60 mins
Cytochrome P450 2C19 [25] = target: T4, Cytochrome P450 2C19; assay: Activity of human recombinant CYP2C19.15 mutant expressed in Saccharomyces cerevisiae BJ5457 assessed as omeprazole 5'-hydroxylation per pmol protein at 100 uM after 60 mins
Cytochrome P450 2C19 [26] = target: T6, Cytochrome P450 2C19; assay: Activity of human recombinant CYP2C19.8 mutant expressed in Saccharomyces cerevisiae BJ5457 assessed as omeprazole 5'-hydroxylation per pmol protein at 100 uM after 60 mins
Cytochrome P450 2C19 [27] = target: Cytochrome P450 2C19 (Homo sapiens, UniProt P33261, R144H); assay: Activity of human recombinant CYP2C19.9 mutant expressed in Saccharomyces cerevisiae BJ5457 assessed as omeprazole 5'-hydroxylation per pmol protein at 100 uM after 60 mins
Cytochrome P450 2C19 [28] = target: T7, Cytochrome P450 2C19; assay: Activity of human recombinant CYP2C19 A161P mutant expressed in Saccharomyces cerevisiae BJ5457 assessed as omeprazole 5'-hydroxylation per pmol protein at 100 uM after 60 mins
Cytochrome P450 2C19 [29] = target: T3, Cytochrome P450 2C19; assay: Activity of human recombinant CYP2C19.16 mutant expressed in Saccharomyces cerevisiae BJ5457 assessed as omeprazole 5'-hydroxylation per pmol protein at 100 uM after 60 mins
Cytochrome P450 2C19 [30] = target: T7, Cytochrome P450 2C19; assay: Activity of human recombinant CYP2C19 A161P mutant expressed in Saccharomyces cerevisiae BJ5457 assessed asomeprazole 5'-hydroxylation after 60 mins
Cytochrome P450 2C19 [31] = target: T2, Cytochrome P450 2C19; assay: Activity of human recombinant CYP2C19.11 mutant expressed in Saccharomyces cerevisiae BJ5457 assessed as omeprazole 5'-hydroxylation per pmol protein at 5 uM after 60 mins

Vmax (Cytochrome P450 2C19 [1]): 6.93 pmol/min
Drug metabolism (Cytochrome P450 2C19 [2]): 1.94 pmol/min
Drug metabolism (Cytochrome P450 2C19 [3]): 2.95 pmol/min
Drug metabolism (Cytochrome P450 2C19 [4]): 6.38 pmol/min
CL (Cytochrome P450 2C19 [5]): 1.68 µL/min
Drug metabolism [6]: metabolite_not_detected
CL (Cytochrome P450 2C19 [7]): 0.41 µL/min
Vmax (Cytochrome P450 2C19 [8]): 2.04 pmol/min
Drug metabolism (Cytochrome P450 2C19 [9]): 3.41 pmol/min
Vmax (Cytochrome P450 2C19 [10]): 4.03 pmol/min
Drug metabolism (Cytochrome P450 2C19 [11]): 8.55 pmol/min
Km (Cytochrome P450 2C19 [12]): 4.16 µM
Drug metabolism (Cytochrome P450 2C19 [13]): 8.65 pmol/min
CL (Cytochrome P450 2C19 [14]): 1.21 µL/min
Km (Cytochrome P450 2C19 [15]): 3.62 µM
Drug metabolism (Cytochrome P450 2C19 [16]): metabolite_not_detected
Drug metabolism (Cytochrome P450 2C19 [17]): 2.85 pmol/min
Drug metabolism [18]: metabolite_not_detected
Vmax (Cytochrome P450 2C19 [19]): 1.61 pmol/min
Drug metabolism (Cytochrome P450 2C19 [20]): 5.36 pmol/min
CL (Cytochrome P450 2C19 [21]): 0.79 µL/min
Vmax (Cytochrome P450 2C19 [22]): 6.05 pmol/min
Drug metabolism (Cytochrome P450 2C19 [23]): 4.1 pmol/min
Km (Cytochrome P450 2C19 [24]): 4.17 µM
Drug metabolism (Cytochrome P450 2C19 [25]): 7.81 pmol/min
Drug metabolism (Cytochrome P450 2C19 [26]): 0.72 pmol/min
Drug metabolism (Cytochrome P450 2C19 [27]): 5.48 pmol/min
Drug metabolism (Cytochrome P450 2C19 [28]): 1.39 pmol/min
Drug metabolism (Cytochrome P450 2C19 [29]): 1.41 pmol/min
Km (Cytochrome P450 2C19 [30]): 6.68 µM
Drug metabolism (Cytochrome P450 2C19 [31]): 2.84 pmol/min
Structure (SMILES): COc1ccc2[nH]c([S+]([O-])Cc3ncc(C)c(OC)c3C)nc2c1 (stereo unspecified) [OMEPRAZOLE]
